The text below walks through data of US20080124384A1, “Heteroaryl Substituted Piperazinyl-Pyridine Analogues” (priority 2005, published 2008).

pIC50, pKi: −log10 of the molar value.

Usually pIC50 stands for the negative decadic logarithm of the IC50, by convention in mol/L. What is called pKi is the Ki on a negative log10 scale, so that one unit is a factor of ten.

Test [1] deals with T1, human capsaicin receptor (Homo sapiens, UniProt Q8NER1).
T1 construct: expressed in transfected cells; host or cells: HEK293 cells stably transfected with pBK-CMV construct
T1 sequence (Q8NER1 whole entry): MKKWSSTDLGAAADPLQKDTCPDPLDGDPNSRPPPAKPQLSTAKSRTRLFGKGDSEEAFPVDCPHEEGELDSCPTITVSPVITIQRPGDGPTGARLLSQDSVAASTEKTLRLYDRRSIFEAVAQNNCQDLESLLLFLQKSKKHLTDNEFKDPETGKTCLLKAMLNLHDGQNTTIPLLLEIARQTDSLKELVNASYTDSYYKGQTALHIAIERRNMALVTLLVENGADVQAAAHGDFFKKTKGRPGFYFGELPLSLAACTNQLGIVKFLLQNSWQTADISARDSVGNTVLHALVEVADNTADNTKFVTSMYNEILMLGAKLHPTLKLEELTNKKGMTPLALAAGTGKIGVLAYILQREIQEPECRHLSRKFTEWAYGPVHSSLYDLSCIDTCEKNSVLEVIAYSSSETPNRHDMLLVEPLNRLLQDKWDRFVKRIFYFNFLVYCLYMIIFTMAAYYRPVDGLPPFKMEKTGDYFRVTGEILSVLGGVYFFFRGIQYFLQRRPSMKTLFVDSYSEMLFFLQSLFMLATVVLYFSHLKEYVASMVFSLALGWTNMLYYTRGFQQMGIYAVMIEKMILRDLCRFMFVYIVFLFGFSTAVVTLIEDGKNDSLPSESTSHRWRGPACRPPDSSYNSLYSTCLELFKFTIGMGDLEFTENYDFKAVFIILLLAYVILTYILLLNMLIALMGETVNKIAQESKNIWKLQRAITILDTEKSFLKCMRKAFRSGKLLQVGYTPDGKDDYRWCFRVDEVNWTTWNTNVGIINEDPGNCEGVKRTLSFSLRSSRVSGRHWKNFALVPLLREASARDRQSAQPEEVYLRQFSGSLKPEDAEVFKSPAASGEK
In words: Calcium mobilization assay, determination of antagonist activity (Example 6). The note with it: cells expressing human capsaicin receptor; capsaicin at its EC50; read-out: IC50 determined as described in Example 6. The class given is cell-based. The text has this:
A cDNA encoding full length human capsaicin receptor (SEQ ID NO:1, 2 or 3 of U.S. Pat. No. 6,482,611) is subcloned in the plasmid pBK-CMV (Stratagene, La Jolla, Calif.) for recombinant expression in mammalian cells.
Human embryonic kidney (HEK293) cells are transfected with the pBK-CMV expression construct encoding the full length human capsaicin receptor using standard methods. […] Independent clones are isolated from this pool by limiting dilution to obtain clonal stable cell lines for use in subsequent experiments.
This Example illustrates representative calcium mobilization assays for use in evaluating test compounds for agonist and antagonist activity.
(§1) Cells transfected with expression plasmids (as described in Example 4) and thereby expressing human capsaicin receptor are seeded and grown to 70-90% confluency in FALCON black-walled, clear-bottomed 96-well plates (#3904, BECTON-DICKINSON, Franklin Lakes, N.J.). The culture medium is emptied from the 96 well plates and FLUO-3 AM calcium sensitive dye (Molecular Probes, Eugene, Oreg.) is added to each well (dye solution: 1 mg FLUO-3 AM, 440 μL DMSO and 440 μl 20% pluronic acid in DMSO, diluted 1:250 in Krebs-Ringer HEPES (KRH) buffer (25 mM HEPES, 5 mM KCl, 0.96 mM NaH2PO4, 1 mM MgSO4, 2 mM CaCl2, 5 mM glucose, 1 mM probenecid, pH 7.4), 50 μl diluted solution per well). Plates are covered with aluminum foil and incubated at 37° C. for 1-2 hours in an environment containing 5% CO2. After the incubation, the dye is emptied from the plates, and the cells are washed once with KRH buffer, and resuspended in KRH buffer.
To measure the ability of a test compound to agonize or antagonize a calcium mobilization response in cells expressing capsaicin receptors to capsaicin or other vanilloid agonist, the EC50 of the agonist capsaicin is first determined. An additional 20 μl of KRH buffer and 1 μl DMSO is added to each well of cells, prepared as described above. 100 μl capsaicin in KRH buffer is automatically transferred by the FLIPR instrument to each well. […] Data obtained between 30 and 60 seconds after agonist application are used to generate an 8-point concentration response curve, with final capsaicin concentrations of 1 nM to 3 μM.
Test compounds are dissolved in DMSO, diluted in 20 μl KRH buffer so that the final concentration of test compounds in the assay well is between 1 μM and 5 μM, and added to cells prepared as described above. The 96 well plates containing prepared cells and test compounds are incubated in the dark, at room temperature for 0.5 to 6 hours. It is important that the incubation not continue beyond 6 hours. Just prior to determining the fluorescence response, 100 μl capsaicin in KRH buffer at twice the EC50 concentration determined as described above is automatically added by the FLIPR instrument to each well of the 96 well plate for a final sample volume of 200 μl and a final capsaicin concentration equal to the EC50. The final concentration of test compounds in the assay wells is between 1 μM and 5 μM.
A general note: A change in cytosolic calcium serves as a functional read-out for many receptors and channels.

Test [2] concerns the target T1, human capsaicin receptor. In words: Calcium mobilization assay, agonist response (Example 6). It counts as cell-based. Particulars: positive control in the agonist assay; read-out: approximate EC90 concentration. The procedure:
as §1
To measure the ability of a test compound to agonize or antagonize a calcium mobilization response in cells expressing capsaicin receptors to capsaicin or other vanilloid agonist, the EC50 of the agonist capsaicin is first determined. An additional 20 μl of KRH buffer and 1 μl DMSO is added to each well of cells, prepared as described above. 100 μl capsaicin in KRH buffer is automatically transferred by the FLIPR instrument to each well. […]

In another test the target is VR. The note with it: typically; no more than moderate affinity; read-out: Ki value (binds to VR); cited from earlier work.

`CC1CCCN1c1nc(-c2ccc(F)cc2)cc(N2CCC(c3nnn[nH]3)CC2)n1` (stereo not shown) [Compound 1, 4-(4-Fluoro-phenyl)-2-(2-methyl-pyrrolidin-1-yl)-6-[4-(1H-tetrazol-5-yl)-piperidin-1-yl]pyrimidine]: the pIC50 on human capsaicin receptor [1] was above 6.00. The same measure, in the same setting: under `CC1CCCN1c1nc(-c2ccc(F)cc2)cc(N2CCN(c3nccn3C)CC2)n1` (stereo not shown) [Compound 2, 4-(4-Fluoro-phenyl)-6-[4-(1-methyl-1H-imidazol-2-yl)-piperazin-1-yl]-2-(2-methyl-pyrrolidin-1-yl)-pyrimidine] stands above 6.00. Same read-out and setting: the result for `CC1CCCN1c1nc(-c2ccc(F)cc2)cc(N2CCC(c3nccn3C)CC2)n1` (stereo not shown) [Compound 3] reads above 6.00; that for `CC1CCCN1c1nc(-c2ccc(F)c(Cl)c2)cc(N2CCN(c3nsnc3Cl)CC2)n1` (stereo not shown) [Compound 4], above 6.00. Turning to `C[C@@H]1CCCN1c1nc(-c2ccc(F)c(Cl)c2)cc(N2CCN(c3nccn3C)CC2)n1` [Compound 5, 4-(3-Chloro-4-fluoro-phenyl)-6-[4-(1-methyl-1H-imidazol-2-yl)-piperazin-1-yl]-2-((R)-2-methyl-pyrrolidin-1-yl)-pyrimidine], on human capsaicin receptor [1], the pIC50 is above 6.00. `COc1cc(CNC(=O)CCCC/C=C/C(C)C)ccc1O` [capsaicin]: the EC90 on human capsaicin receptor [2] was around 100 nM. Consider `Cl.Cl.Cl.Cl.Cl.Cl.N.N.N.N.N.N.N.N.N.N.N.N.N.N.[O-2].[O-2].[Ru+3].[Ru+3].[Ru+4]` [ruthenium red], for which the negative-log Ki (pKi) at VR was at most 3.85.
